Data on 2 molecules can be found in ChEMBL document CHEMBL5550199, “Rational In Silico Design of Selective TMPRSS6 Peptidomimetic Inhibitors via Exploitation of the S2 Subpocket” (J Med Chem, 2024).

In brackets after ≈: the same amount, converted by molar mass. Activity calls are given as the source filed them. The rule behind the calls is not given here. Where only a bound is given, the exact number is not on record here.

The target of data set [1] is T1, Transmembrane protease serine 6 (Homo sapiens, UniProt Q8IU80).
T1 sequence (Q8IU80 whole entry): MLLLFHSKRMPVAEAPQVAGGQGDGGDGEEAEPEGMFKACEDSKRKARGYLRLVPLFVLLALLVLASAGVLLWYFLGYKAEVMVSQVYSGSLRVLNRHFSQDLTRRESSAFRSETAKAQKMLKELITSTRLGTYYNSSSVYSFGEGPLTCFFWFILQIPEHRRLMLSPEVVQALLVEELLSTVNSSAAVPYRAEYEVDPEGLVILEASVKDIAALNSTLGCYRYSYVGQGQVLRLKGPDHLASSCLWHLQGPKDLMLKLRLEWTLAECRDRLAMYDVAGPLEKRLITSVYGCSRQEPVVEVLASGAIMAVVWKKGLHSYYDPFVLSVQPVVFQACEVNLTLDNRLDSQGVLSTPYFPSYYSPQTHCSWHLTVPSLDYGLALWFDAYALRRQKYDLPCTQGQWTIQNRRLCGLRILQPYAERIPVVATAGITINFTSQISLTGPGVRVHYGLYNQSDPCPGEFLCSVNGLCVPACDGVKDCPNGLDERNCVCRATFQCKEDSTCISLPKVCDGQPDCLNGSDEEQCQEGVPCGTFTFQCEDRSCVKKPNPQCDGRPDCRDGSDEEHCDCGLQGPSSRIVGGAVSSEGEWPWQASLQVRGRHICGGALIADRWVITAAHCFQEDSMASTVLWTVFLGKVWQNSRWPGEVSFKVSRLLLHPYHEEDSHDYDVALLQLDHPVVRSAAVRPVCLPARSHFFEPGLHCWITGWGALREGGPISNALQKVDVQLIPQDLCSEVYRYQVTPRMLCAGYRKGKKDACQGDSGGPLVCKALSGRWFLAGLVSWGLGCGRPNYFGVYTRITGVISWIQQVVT
As to the kind of experiment: Binding affinity to recombinant human TMPRSS6 using Boc-QAR-AMC as substrate assessed as inhibition constant by fluorescence based analysis.

Data set [2] addresses T2, Suppressor of tumorigenicity 14 protein (Homo sapiens, UniProt Q9Y5Y6).
T2 sequence (Q9Y5Y6 whole entry): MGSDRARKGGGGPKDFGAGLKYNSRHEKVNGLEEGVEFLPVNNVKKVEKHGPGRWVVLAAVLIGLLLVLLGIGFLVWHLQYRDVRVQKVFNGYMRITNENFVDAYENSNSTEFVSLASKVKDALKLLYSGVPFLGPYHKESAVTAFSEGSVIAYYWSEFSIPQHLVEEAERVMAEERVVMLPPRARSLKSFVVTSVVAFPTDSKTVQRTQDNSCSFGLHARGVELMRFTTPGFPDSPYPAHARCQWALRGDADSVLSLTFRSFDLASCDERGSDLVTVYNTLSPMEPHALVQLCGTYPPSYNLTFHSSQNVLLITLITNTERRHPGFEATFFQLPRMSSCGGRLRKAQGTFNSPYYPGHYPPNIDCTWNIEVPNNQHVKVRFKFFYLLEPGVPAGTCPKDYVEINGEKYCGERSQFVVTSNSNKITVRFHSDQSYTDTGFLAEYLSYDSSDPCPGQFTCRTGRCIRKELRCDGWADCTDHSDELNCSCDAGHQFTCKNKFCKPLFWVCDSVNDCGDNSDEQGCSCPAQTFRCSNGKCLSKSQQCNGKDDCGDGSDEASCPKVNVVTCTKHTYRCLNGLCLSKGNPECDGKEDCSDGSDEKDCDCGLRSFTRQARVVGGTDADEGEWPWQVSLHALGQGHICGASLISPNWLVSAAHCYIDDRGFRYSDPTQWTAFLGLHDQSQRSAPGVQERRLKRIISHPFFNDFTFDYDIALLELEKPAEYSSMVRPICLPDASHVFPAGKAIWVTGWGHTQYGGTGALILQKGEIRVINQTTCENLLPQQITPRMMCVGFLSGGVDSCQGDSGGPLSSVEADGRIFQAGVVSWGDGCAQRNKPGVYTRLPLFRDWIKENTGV
As to the kind of experiment: Binding affinity to recombinant human Matriptase using Boc-QAR-AMC as substrate assessed as inhibition constant by fluorescence based analysis.

For data set [3], the species on record is Homo sapiens. Put plainly: Selectivity index, ratio of Ki for binding affinity to recombinant human Matriptase using Boc-QAR-AMC as substrate assessed as inhibition constant by fluorescence based analysis to Ki for binding affinity to recombinant human TMPRSS6 using Boc-QAR-AMC as substrate assessed as inhibition constant by fluorescence based analysis.

Data set [4] has as its target T3, Transmembrane protease serine 6 (Homo sapiens) (UniProt Q8IU80).
T3 sequence (whole entry): T1 sequence (Q8IU80 whole entry)
As to the kind of experiment: Inhibition of recombinant human TMPRSS6 at 100 nM by Michaelis-Menten analysis relative to control.

Data set [5] concerns the target T4, Suppressor of tumorigenicity 14 protein (Homo sapiens) (UniProt Q9Y5Y6).
T4 sequence (whole entry): T2 sequence (Q9Y5Y6 whole entry)
As to the kind of experiment: Inhibition of recombinant human Matriptase at 100 nM by Michaelis-Menten analysis relative to control.

For data set [6], the target named is T2, Suppressor of tumorigenicity 14 protein. As to the kind of experiment: Competitive tight binding inhibition of recombinant human Matriptase using Boc-QAR-AMC as substrate assessed as inhibition constant by fluorescence based analysis.
Data set [7] concerns the target T1, Transmembrane protease serine 6. Put plainly: Competitive tight binding inhibition of recombinant human TMPRSS6 using Boc-QAR-AMC as substrate assessed as inhibition constant by fluorescence based analysis.
The species named for data set [8] is Homo sapiens. Put plainly: Selectivity index, ratio of Ki for competitive tight binding inhibition of recombinant human Matriptase using Boc-QAR-AMC as substrate assessed as inhibition constant by fluorescence based analysis to Ki for competitive tight binding inhibition of recombinant human TMPRSS6 using Boc-QAR-AMC as substrate assessed as inhibition constant by fluorescence based analysis.

Data set [9] has as its target T5, Prothrombin (Homo sapiens, UniProt P00734). Put plainly: Inhibition of recombinant human thrombin using Boc-QAR-AMC as substrate assessed as inhibition constant by fluorescence based analysis.
For data set [10], the target named is T6, Coagulation factor X (Homo sapiens, UniProt P00742). Put plainly: Inhibition of recombinant human FXA using Boc-QAR-AMC as substrate assessed as inhibition constant by fluorescence based analysis.
Data set [11] addresses T7, Furin (Homo sapiens, UniProt P09958). Put plainly: Inhibition of recombinant human furin using Boc-RVRR-AMC as substrate assessed as inhibition constant by fluorescence based analysis.
Data set [12] concerns the target T5, Prothrombin. Put plainly: Inhibition of thrombin (unknown origin).
Data set [13] deals with T6, Coagulation factor X. Put plainly: Inhibition of FXA (unknown origin).
Data set [14] addresses T7, Furin. Put plainly: Inhibition of furin (unknown origin).
Data set [15] in a line: Cytotoxicity against HEK cells assessed as reduction in cell viability measured for 24 hrs by celltiter-glo 2.0 assay. Conditions: human. Format: toxicity, cell-based. For orientation: In ATP-based viability assays light output follows the ATP content of the culture.
Data set [16] has as its target T1, Transmembrane protease serine 6. Put plainly: Inhibition of human TMPRSS6 transfected in HEK293SL cells using Boc-QAR-AMC as substrate measured for 24 hrs. The format is cell-based.
The target in data set [17] is T2, Suppressor of tumorigenicity 14 protein. As to the kind of experiment: Inhibition of human Matriptase transfected in HEK293SL cells using Boc-QAR-AMC as substrate measured for 24 hrs. Format: cell-based.
The species named for data set [18] is Homo sapiens. Put plainly: Selectivity index, ratio of IC50 for inhibition of human Matriptase transfected in HEK293SL cells using Boc-QAR-AMC as substrate to IC50 for inhibition of human TMPRSS6 transfected in HEK293SL cells using Boc-QAR-AMC as substrate. The format is cell-based.
Data set [19] is described as follows: Solubility of compound in PBS at pH 7.4 measured for 90 mins by UPLC analysis. Format: physicochemical. Conditions: buffer, pH 7.4, 1.5 h.
Data set [20] is described as follows: Stability in Sprague-Dawley rat plasma assessed as parent compound remaining at 24 hrs by UPLC-MS analysis. Format: ADME, cell-free.
A short description of data set [21]: Metabolic stability in Sprague-Dawley rat microsome assessed as half life measured for 120 mins in presence of NADPH by UPLC-MS analysis. Format: ADME. The settings on record: microsomes, 2 h.
Data set [22] in a line: Metabolic stability in Sprague-Dawley rat microsome assessed as intrinsic clearance measured for 120 mins in presence of NADPH by UPLC-MS analysis. The format is ADME. The settings on record: microsomes, 2 h.
The nature of data set [23]: Apparent Permeability of compound in PBS buffer at pH 7.4 incubated for 17 hrs by PAMPA assay. The format is ADME. Conditions: pH 7.4, 17 h.
Data set [24] has as its system Caco-2. Put plainly: Disruption of epithelial integrity in human Caco-2 cells assessed as change in TEER modulation after 8 days. The settings on record: Caco-2, 192 h. The format is functional, cell-based.
In data set [25] the test system is Caco-2. Put plainly: Disruption of epithelial integrity in human Caco-2 cells assessed as change in TEER modulation at 10 uM after 8 days. The settings on record: time 8.0 day. The format is functional, cell-based.
The target in data set [26] is T2, Suppressor of tumorigenicity 14 protein. Put plainly: Mixed inhibition of recombinant human Matriptase using Boc-QAR-AMC as substrate assessed as inhibition constant by fluorescence based analysis.
The species entered for data set [27] is Homo sapiens. As to the kind of experiment: Selectivity index, ratio of Ki for mixed inhibition of recombinant human Matriptase using Boc-QAR-AMC as substrate assessed as inhibition constant by fluorescence based analysis to Ki for competitive tight binding inhibition of recombinant human TMPRSS6 using Boc-QAR-AMC as substrate assessed as inhibition constant by fluorescence based analysis.

T7 sequence (P09958 whole entry): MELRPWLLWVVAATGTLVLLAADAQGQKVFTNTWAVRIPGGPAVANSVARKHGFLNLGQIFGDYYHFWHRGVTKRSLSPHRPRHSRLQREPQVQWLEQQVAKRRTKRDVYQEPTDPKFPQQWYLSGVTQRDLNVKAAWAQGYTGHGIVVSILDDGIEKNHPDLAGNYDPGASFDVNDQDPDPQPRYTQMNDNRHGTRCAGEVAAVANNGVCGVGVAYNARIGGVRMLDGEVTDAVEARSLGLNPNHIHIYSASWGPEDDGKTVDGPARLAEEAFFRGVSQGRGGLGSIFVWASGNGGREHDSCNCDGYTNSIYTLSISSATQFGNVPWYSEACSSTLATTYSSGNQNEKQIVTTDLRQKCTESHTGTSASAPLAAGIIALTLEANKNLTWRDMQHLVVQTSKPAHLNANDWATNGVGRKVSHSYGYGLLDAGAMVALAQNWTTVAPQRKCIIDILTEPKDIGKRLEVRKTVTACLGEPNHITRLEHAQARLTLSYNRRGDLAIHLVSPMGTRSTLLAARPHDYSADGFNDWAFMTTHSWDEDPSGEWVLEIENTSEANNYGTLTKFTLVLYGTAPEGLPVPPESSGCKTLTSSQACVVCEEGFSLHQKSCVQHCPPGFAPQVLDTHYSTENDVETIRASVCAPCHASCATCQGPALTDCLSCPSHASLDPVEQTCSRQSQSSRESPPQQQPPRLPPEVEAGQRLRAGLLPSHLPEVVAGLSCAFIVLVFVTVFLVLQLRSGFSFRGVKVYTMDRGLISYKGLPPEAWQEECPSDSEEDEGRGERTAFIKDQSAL
T6 sequence (P00742 41-179 limits assumed): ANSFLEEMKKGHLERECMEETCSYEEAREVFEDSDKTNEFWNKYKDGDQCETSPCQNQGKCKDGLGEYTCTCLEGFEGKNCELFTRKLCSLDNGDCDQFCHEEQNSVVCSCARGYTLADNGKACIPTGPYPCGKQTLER
T6 sequence (P00742 235-488 limits assumed): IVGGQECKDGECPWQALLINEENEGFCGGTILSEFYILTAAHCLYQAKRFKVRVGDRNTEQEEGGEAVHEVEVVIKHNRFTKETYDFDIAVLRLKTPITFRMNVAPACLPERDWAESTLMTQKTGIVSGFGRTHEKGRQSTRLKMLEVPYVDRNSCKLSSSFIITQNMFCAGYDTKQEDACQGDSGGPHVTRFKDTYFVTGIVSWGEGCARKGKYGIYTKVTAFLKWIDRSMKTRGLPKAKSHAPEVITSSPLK

As for `CC(C)[C@H](NC(=O)[C@H](Cc1cscn1)NC(=O)CCc1ccccc1)C(=O)N[C@@H](CCCNC(=N)N)C(=O)c1nc2ccccc2s1`, the Ki in [1] was 1.2 nM; in [2], 8.6 nM; in [6], 4.8 nM; in data set [7] it was 0.6 nM; on Prothrombin [9], 53 nM; at Coagulation factor X [10], 2320 nM. Also, the Ki at Furin [11] is > 10000 nM; on Prothrombin [12], 1100 nM; on Coagulation factor X [13], 323 nM; on Furin [14], > 30000 nM. Besides, the Ratio Ki in the data set filed under Homo sapiens [3] was 7.2; in the data set filed under Homo sapiens [8] it was 8. Moreover, the inhibition in [4] is 1%; in data set [5], 5%. In data set [15], the Activity result is “Non-Toxic”. For the same molecule, the IC50 in data set [16] turned out to be 4.4 nM; in [17] it was 18.1 nM; in the data set on Caco-2 [24] it was 18.1 nM. The Ratio IC50 in the data set listed under Homo sapiens [18] turned out to be 4. Besides, the solubility in data set [19] stood at 250 µM (≈ 169 µg/mL). Besides, the Stability in [20] is reported as 6%. The t1/2 in data set [21] was > 2 h. In [22], the CLH came out at 1.12 µL/min/mg. The Papp in [23] is listed as 0.004 10^-6 cm/s. The outcome in the data set on Caco-2 [25] was Active.

Turning to `N=C(N)NCCC[C@H](NC(=O)[C@@H](NC(=O)[C@H](CCc1ccccc1)NC(=O)CCc1ccccc1)C1CCCCC1)C(=O)c1nc2ccccc2s1`, the Ki is 618 nM in data set [26]; 5.2 nM in data set [7]; 395 nM on Prothrombin [9]; > 10000 nM at Coagulation factor X [10]; > 10000 nM at Furin [11]. In addition, the Ratio Ki in the data set listed under Homo sapiens [27] is 119. Besides, the IC50 in data set [16] came to 332 nM; in [17], 6070 nM; in the data set with Caco-2 [24] it was 6100 nM. Besides, the Ratio IC50 in the data set listed under Homo sapiens [18] turned out to be 18. The Stability in [20] was determined as 100%. In addition, in [21], the t1/2 was > 2 h. Also, the CLH in [22] came out at 1.4 µL/min/mg. In addition, in data set [23], the Papp is 0.01 10^-6 cm/s.

Broadly, the Ki is the equilibrium dissociation constant of an inhibitor or competing ligand from its target. Broadly, the inhibition is the share of the control response that was lost under treatment. Broadly, the IC50 is the concentration that gives 50% inhibition. As usually defined, the solubility is how much of the substance goes into solution per volume.
